“And” between values parts separate entries of the source, which are not always exact repeats. Equal entries are not always repeated. “Also recorded” adds a separate entry of the source. Where two headings read alike, the source gives them in different places. One block for each compound: values may come before it.
What was measured:
[1] = Open-label clinical pharmacokinetic study of oral XBD173 and etifoxine in healthy volunteers (plasma LC-MSMS); type: in vivo, human; settings: for AUC0‐4 h / concentration at 30 min / concentration at 60 min / concentration at 120 min / concentration at 180 min / concentration at 240 min / Cmax / Tmax / AUC / AUClast / AUC(0-t): plasma; for Adverse events: 4 healthy volunteers, XBD173 90 mg once daily 7 days and etifoxine 50 mg TDS 7 days; for concentration at 30 min / concentration at 60 min / concentration at 120 min / concentration at 180 min / concentration at 240 min / Cmax / Tmax / AUC / AUC(0-t): human, po; for AUC: read-out: AUC0‐4 h
Description: This was a single centre, open‐label study enrolling 4 adult healthy volunteers (aged 35–65 y) irrespective of rs6971 genotype. Detailed inclusion and exclusion criteria are shown in the supplementary information. […] As a precaution, therefore, a long washout period was chosen. The first dose was taken at the clinical research facility and the participant was monitored for 4 hours. Subsequent doses were taken at home by the participant. On day 7, the participant returned for a final assessment. […] The PI of the study was Paul M. Matthews (DPhil, FRCP, FMedSci) who is an author on the manuscript.
Plasma samples for pharmacokinetic analysis were obtained on day 1 at 0.5, 1, 2, 3, 4 hours following the first dose. […] Plasma samples were stored at −20°C or lower until analysis. Plasma samples (25 μL) were prepared for analysis by protein precipitation with acetonitrile containing internal standard (tolbutamide; 200 μL) followed by mixing (150 rpm, 15 min) and centrifugation (1500 g, 15 min). The supernatant (50) μL was diluted with water (100 μL) and mixed (100 rpm, 15 min). […] Injection volume was 1 μL.

TSPO [2] = target: TSPO (Homo sapiens, UniProt P30536); assay: Competition radioligand binding with [3H]PK11195 in human brain membranes
TSPO (Homo sapiens, UniProt P30536), sequence (P30536 2-169): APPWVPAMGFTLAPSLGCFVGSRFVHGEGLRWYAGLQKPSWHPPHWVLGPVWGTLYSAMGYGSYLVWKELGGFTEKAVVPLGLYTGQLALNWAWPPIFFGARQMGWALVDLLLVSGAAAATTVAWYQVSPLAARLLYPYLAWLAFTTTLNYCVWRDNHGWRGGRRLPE
Description: The assay was terminated via filtration through Whatman GF/B filters. Scintillation fluid (4 mL/vial, Perkin Elmer Ultima‐Gold MV) was added and vials counted on a Perkin Elmer Tricarb 2900 liquid scintillation counter.
Tissue was obtained from 8 donors from the UK Multiple Sclerosis (MS) Tissue Bank at Imperial College. […] The tissue was stored at -80 °C until use.
Tissue blocks were homogenised in 10 times weight for volume (w/v) buffer (0.32mM sucrose, 5mM Tris base, 1mM MgCl2, pH 7.4, 4 °C). Homogenates were centrifuged (32,000g, 20min, 4 °C) followed by removal of the supernatant. Pellets were re-suspended in at least 10 times w/v buffer (50mM Tris base, 1mM MgCl2, pH 7.4, 4 °C) followed by two washes by centrifugation (32,000g, 20min, 4 °C). Membranes were suspended in buffer (50mM Tris base, 1mM MgCl2, pH 7.4, 4 °C) at a protein concentration of approximately 4 mg protein/ml and aliquots were stored at -80 °C until use.
All competition data were analysed using the iterative non-linear regression curve fitting software supplied with GraphPad Prism 8.1. A single site competition model was fitted to the data using the least squares algorithm. […] Data are expressed as the mean ± standard error of the mean (SEM). The Student’s t-test (GraphPad Prism 8.1) was used to determine statistical significance.

[3] = Solubility limitation of etifoxine in binding assay; type: physicochemical; settings: assay buffer pH 7.4
Description: The specific binding component was determined using unlabelled PK11195 (10µM). Following incubation, assays were terminated via filtration through Whatman GF/B filters, followed by 3 x 1 ml washes with ice-cold wash buffer (50mM Tris Base, 1.4mM MgCl2, pH 7.4, 4 °C). Whatman GF/B filters were pre-incubated with 0.05% polyethyleneimine (60min) before filtration. Scintillation fluid (4ml/vial, Perkin Elmer Ultima Gold MV) was added and vials counted on a Perkin Elmer Tricarb 2900 liquid scintillation counter. For each donor, each point was performed in quadruplicate. Ki (nM) values were determined using GraphPad Prism 8.1 software (GraphPad Software Inc, USA).

TSPO [4] = settings: cited from earlier work
[5] = target: γ‐aminobutyric acid‐a receptor; settings: rodent brain; cited from earlier work
[6] = system: γ‐aminobutyric acid‐a receptor; settings: cited from earlier work
[7] = system: experimental autoimmune encephalomyelitis mouse model; settings: cited from earlier work
[8] = Plasma protein binding by equilibrium dialysis; settings: plasma spiked at 1 μM, 37°C, 4 hours, mean (SEM)
Description: (§1) Plasma protein binding was measured by equilibrium dialysis using 96‐well plate blocks with 2 compartments separated by a vertical cylinder of dialysis membrane (molecular weight cut off ~8000 Da; ThermoFisher Scientific). […] The unit was covered and incubated at 37°C on an orbital shaker for 4 hours. After incubation, samples from both plasma (bound) chamber and the buffer (free) chamber were taken and matrix‐matched by addition of the alternative blank matrix. Acetonitrile containing internal standard was added to all samples. […] The ratio of responses in free to bound samples equates to the free fraction.

TSPO [9] = assay: Estimates of TSPO occupancy from plasma concentration and binding affinity; design: species or system human; settings: 90 mg oral XBD173
TSPO [10] = settings: cited from earlier work; remark: listed apart in the source
[11] = design: method as in PMID 19541954; settings: cited from earlier work
in vitro = settings: plasma, pH 7.4
Description: as §1

[12] = 50 mg, 50mg etifoxine single oral dose, participant 2
[13] = 50 mg, 50mg etifoxine single oral dose, Mean (SEM)
[14] = 50 mg, 50mg etifoxine single oral dose, participant 3
[15] = 50 mg, 50mg etifoxine single oral dose, participant 4
[16] = 50 mg, 50mg etifoxine single oral dose, participant 1
[17] = 50 mg, 50 mg etifoxine single oral dose, Median of 4 participants
[18] = 50 mg, 50 mg etifoxine single oral dose, participant 1
[19] = 50 mg, 50 mg etifoxine single oral dose, participant 2
[20] = 50 mg, 50 mg etifoxine single oral dose, participant 3
[21] = 50 mg, 50 mg etifoxine single oral dose, participant 4
[22] = 90 mg, 90mg XBD173 single oral dose, participant 2
[23] = 90 mg, 90mg XBD173 single oral dose, Mean (SEM)
[24] = 90 mg, 90mg XBD173 single oral dose, participant 1
[25] = 90 mg, 90mg XBD173 single oral dose, participant 3
[26] = 90 mg, 90mg XBD173 single oral dose, participant 4
[27] = 90 mg, 90 mg XBD173 single oral dose, Median of 4 participants
[28] = 90 mg, 90 mg XBD173 single oral dose, participant 1
[29] = 90 mg, 90 mg XBD173 single oral dose, participant 2
[30] = 90 mg, 90 mg XBD173 single oral dose, participant 3
[31] = 90 mg, 90 mg XBD173 single oral dose, participant 4

SMILES: CCNC1=Nc2ccc(Cl)cc2C(C)(c2ccccc2)O1 (centres unmarked) [etifoxine]
AUC0‐4 h ([1]; 50 mg etifoxine single oral dose, Max of 4 participants): 83 ng·h/mL
AUC0‐4 h ([1]; 50 mg etifoxine single oral dose, Min of 4 participants): 59 ng·h/mL
Adverse events [1]: No adverse events were reported
Accumulation after multiple doses ([1]; etifoxine 50 mg TDS for 7 days, day 7 vs day 1 plasma concentration): did not find evidence for significant etifoxine accumulation; also recorded: did not find evidence for drug accumulation
concentration at 30 min [1, 12]: 4 ng/mL
concentration at 60 min [1, 13]: 8.2 ng/mL
concentration at 60 min [1, 12]: 15.9 ng/mL
concentration at 60 min [1, 14]: 6.2 ng/mL
concentration at 60 min [1, 15]: 2.4 ng/mL
concentration at 120 min [1, 13]: 29.8 ng/mL
concentration at 120 min [1, 16]: 15.5 ng/mL
concentration at 120 min [1, 12]: 33.4 ng/mL
concentration at 120 min [1, 14]: 39.4 ng/mL
concentration at 120 min [1, 15]: 30.7 ng/mL
concentration at 180 min [1, 13]: 22.9 ng/mL
concentration at 180 min [1, 16]: 24.2 ng/mL
concentration at 180 min [1, 12]: 12.3 ng/mL
concentration at 180 min [1, 14]: 27.1 ng/mL
concentration at 180 min [1, 15]: 27.9 ng/mL
concentration at 240 min [1, 13]: 18 ng/mL
concentration at 240 min [1, 16]: 22.7 ng/mL
concentration at 240 min [1, 12]: 9.2 ng/mL
concentration at 240 min [1, 14]: 20.1 ng/mL
concentration at 240 min [1, 15]: 20.1 ng/mL
Cmax [1, 17]: 32 ng/mL
Tmax [1, 17]: 2 h
Cmax [1, 18]: 24 ng/mL
Tmax [1, 18]: 3 h
Cmax [1, 19]: 33 ng/mL
Tmax [1, 19]: 2 h
Cmax [1, 20]: 39 ng/mL
Tmax [1, 20]: 2 h
Cmax [1, 21]: 31 ng/mL
Tmax [1, 21]: 2 h
AUC [1, 17]: 68 ng·h/mL
AUC [1, 18]: 59 ng·h/mL
AUC [1, 19]: 64 ng·h/mL
AUC [1, 20]: 83 ng·h/mL
AUC [1, 21]: 71 ng·h/mL
Ki (TSPO [2]; read-out: Affinity of etifoxine for TSPO estimated here, value used for the occupancy estimate): 7.6 µM
Ki (TSPO [2]; read-out: Estimated Ki for the whole population, single site binding curve, human brain tissue, 8 donors (4 HABs, 4 LABs), 95% CI 4.5–14.6 μM, competition curve did not fully plateau): 7.8 µM and ~7.8 µM
Ki (TSPO [2]; read-out: Mean Ki, human brain tissue, high affinity binders (HABs), n = 4, [3H]PK11195 0.3 nM): 7.6 ± 2.2 µM
Highest concentration that could be studied due to limitations of solubility [3]: ≤ 30 µM
Binding affinity for TSPO (TSPO [4]; rodent heart): 22.5 µM
Binding affinity for TSPO (TSPO [4]; rodent kidney): 14 µM and 9 µM
IC50 [5]: ~6.7 µM
Concentration above which pharmacodynamic actions at the receptor are elicited [6]: above 1 μM
Clinical scores [7]: improved clinical scores
Fraction in plasma bound [8]: 99.71%
Plasma free fraction [8]: 0.29%

AUClast ([1]; 90 mg XBD173 single oral dose, Max of 4 participants): 556 ng·h/mL
AUClast ([1]; 90 mg XBD173 single oral dose, Min of 4 participants): 74 ng·h/mL
Estimate of plasma concentration (total) ([1]; 90 mg oral XBD173): ~ 320 nM
concentration at 30 min [1, 22]: 5.7 ng/mL
concentration at 60 min [1, 23]: 31.2 ng/mL
concentration at 60 min [1, 24]: 28.4 ng/mL
concentration at 60 min [1, 22]: 15.4 ng/mL
concentration at 60 min [1, 25]: 62.7 ng/mL
concentration at 60 min [1, 26]: 18.4 ng/mL
concentration at 120 min [1, 23]: 106 ng/mL
concentration at 120 min [1, 24]: 55.8 ng/mL
concentration at 120 min [1, 22]: 24.2 ng/mL
concentration at 120 min [1, 25]: 263 ng/mL
concentration at 120 min [1, 26]: 82.7 ng/mL
concentration at 180 min [1, 23]: 99.7 ng/mL
concentration at 180 min [1, 24]: 43.3 ng/mL
concentration at 180 min [1, 22]: 23 ng/mL
concentration at 180 min [1, 25]: 161 ng/mL
concentration at 180 min [1, 26]: 171 ng/mL
concentration at 240 min [1, 23]: 87.6 ng/mL
concentration at 240 min [1, 24]: 40.4 ng/mL
concentration at 240 min [1, 22]: 24.5 ng/mL
concentration at 240 min [1, 25]: 139 ng/mL
concentration at 240 min [1, 26]: 146 ng/mL
AUC(0-t) [1, 27]: 247 ng·h/mL
Cmax [1, 27]: 114 ng/mL
Tmax [1, 27]: 2.5 h
AUC(0-t) [1, 28]: 148 ng·h/mL
Cmax [1, 28]: 56 ng/mL
Tmax [1, 28]: 2 h
AUC(0-t) [1, 29]: 74 ng·h/mL
Cmax [1, 29]: 25 ng/mL
Tmax [1, 29]: 4 h
AUC(0-t) [1, 30]: 556 ng·h/mL
Cmax [1, 30]: 263 ng/mL
Tmax [1, 30]: 2 h
AUC(0-t) [1, 31]: 345 ng·h/mL
Cmax [1, 31]: 171 ng/mL
Tmax [1, 31]: 3 h
Predicted TSPO occupancy (TSPO [9]; from free plasma concentration, in HABs): ~ 30%
Predicted TSPO occupancy from total plasma concentration (TSPO [9]; total plasma concentration ~320 nM): > 99%
fraction unbound at 4 h, 1 μM (in vitro): 0.0034
Fraction in plasma bound [8]: 99.66%
SMILES: CCN(Cc1ccccc1)C(=O)Cn1c(=O)n(C)c2cnc(-c3ccccc3)nc21 [XBD173]
Adverse events [1]: No adverse events were reported
Affinity for TSPO in the human brain (TSPO [10]): 2 to 3 nM
Peak plasma concentrations ([11]; 90‐mg dose): micromolar range
Plasma concentration reached ([11]; 90‐mg dose): 1000 nM
Accumulation on repeated dosing [11]: does not accumulate
